Data taken from article PMC12040169 (PLOS Biology, 2025).

Assay: in vitro
Details: human, hela cells, % viability

| Compound | viability at 28.5 h, 10 µM |
| --- | --- |
| NS(=O)(=O)c1ccc(NC(=O)C2Cc3ccccc3CN2S(=O)(=O)c2ccc(F)cc2)cc1 (stereo not shown) [CBK265208] | 103% |
| CS(=O)(=O)c1ccc(Cn2ccnc(N3CCN(C(=O)c4ccc5occc5c4)CC3)c2=O)cc1 [CBK153777] | 90.8% |
| COc1ccc2c(c1)c(C(=O)NCCn1nc(C)cc1C)c(C)n2C [CBK304615] | 78% |
| O=S(=O)(NCCCN1CCN(Cc2ccccc2)CC1)c1cccc(Cl)c1Cl [CBK074655] | 114% |
| COc1cccc(-c2cc3c(=S)[nH]ccn3n2)c1 [CBK288437] | 88% |
| O=C(c1c[nH]c2ccccc12)C(O)C(c1ccccc1)N1CCCCC1 (stereo not shown) [CBK267799] | 94.1% |
| CSCCCNC(=O)N1CCN(CCc2ccccc2)CC1 [CBK158900] | 81.6% |
| O=C(c1ccc(-c2ccc(F)cc2)o1)N1CCC(n2c(=O)oc3ccccc32)CC1 [CBK286175] | 104% |
| Cc1ccc(NS(=O)(=O)c2cccs2)cc1 [CBK045362] | 64% |
| Cc1cc(S(=O)(=O)CC#N)c(C)cc1Cl [CBK018672] | 89.2% |
| O=[N+]([O-])c1cc(Br)cc(/C=N/Nc2nc3ccccc3[nH]2)c1O [CBK263486] | 89.1% |
| O=S(=O)(Nc1cccc2cccnc12)c1cccs1 [CBK043904] | 60.8% |
| Cc1noc(COc2ccc(OCc3nc(C)no3)cc2)n1 [CBK261364] | 95.6% |
| Nc1nc(Cn2nc(-c3ccc(F)cc3)oc2=O)nc(Nc2ccc(F)cc2)n1 [CBK296742] | 91.6% |
| COCC(=O)N1CC[C@@H]2[C@H]1C(=O)N(c1ccc(OC)cc1)C(=O)N2Cc1ccccc1 [CBK289280] | 92.9% |
| CN(C)Cc1cc(C[C@@H]2C[C@H](NS(=O)(=O)c3ccccc3)C2(C)C)no1 [CBK289307] | 112% |
| OCCNc1ncnc2c1cnn2-c1ccccc1 [CBK077741C] | 81.3% |
| Cc1cc2oc(=O)cc(C)c2cc1NC(=O)c1ccccc1C(=O)O [CBK286572] | 92.1% |
| CN(C(=O)c1c[nH]nc1C1CCCN(Cc2cc3ccccc3o2)C1)C1CCCCC1 (stereo not shown) [CBK286492] | 102% |
| O=C(c1ccc2ncccc2c1)N1CCN(c2ncccn2)CC1 [CBK144503] | 87.9% |
| Cc1ccc(C(=O)N2CCC(c3n[nH]c4ncccc34)CC2)s1 [CBK284911] | 90.8% |
| Cc1ccc(S(=O)(=O)N(CC(=O)Nc2ccccc2F)c2cc(Cl)ccc2Cl)cc1 [CBK268647] | 111% |

| Compound | viability at 28.5 h, 10 µM |
| --- | --- |
| CCC(CN1CCN(C)CC1)NC(=O)Cc1ccc2c(c1)CCC2 (stereo not shown) [CBK282784] | 92.2% |
| CC(NC(=O)CN(c1ccc(Cl)c(Cl)c1)S(=O)(=O)c1ccccc1)c1ccccc1 (stereo not shown) [CBK263781] | 92.8% |
| O=C(O)CCN1C(=O)C(=Cc2ccc(OCc3ccccc3)cc2)c2ccccc2C1=O [CBK297552] | 105% |
| COc1ccc(-n2ncc(-c3cccc(C(F)(F)F)c3)n2)cn1 [CBK112678] | 95.8% |
| COc1ccc(C(C)C)cc1-c1nccnc1NC1CCC(N)CC1 (stereo not shown) [CBK036703] | 108% |
| O=C(O)/C=C/c1ccc(CNS(=O)(=O)c2ccccc2)o1 [CBK286549] | 86% |
| COc1ccc(Oc2cc(Cl)nc(N)n2)cc1 [CBK261771] | 101% |
| Cn1c(CCN2CCOCC2)nc2cc(NC(=O)c3cccs3)ccc21 [CBK268415] | 97.9% |
| O=[N+]([O-])c1ccc(N2CCN(S(=O)(=O)N3CCCC3)CC2)c(Cl)c1 [CBK264772] | 102% |
| Cc1nc(C(=O)NCC2CN3CCCN2CC3)ccc1C(=O)O (stereo not shown) [CBK304242] | 94% |
| CN1C[C@H]2N(C)C(=O)c3ccccc3C(=O)[C@@]2(C)C1 [CBK283482] | 86.7% |
| O=c1n(-c2cccc(C(F)(F)F)c2)ccn1S(=O)(=O)c1ccc(N2CCOCC2)nc1 [CBK106590] | 104% |
| Fc1cccc(-c2nc(-c3cccnc3)no2)c1 [CBK270260] | 92.6% |
| Cc1ccccc1C(NC(=O)C1CCN(C(=O)OCc2ccccc2)CC1)c1ccc(=O)[nH]c1 (stereo not shown) [CBK083200] | 85.7% |
| Cc1cc(NC(=O)C2CCN(CCOc3ccccc3F)CC2)no1 [CBK305688] | 100% |
| C=CCNc1nccnc1-c1cccnc1 [CBK037016] | 101% |
| CC(C)c1ccc(/C=N/Nc2nc(-c3ccccc3)cs2)cc1 [CBK263091] | 94.5% |
| O=C(c1c[nH]c2ccccc12)N1CCc2ccccc2C1 [CBK200331] | 113% |
| O=S(=O)(c1ccccc1)c1cn2ccnc2c(N2CCNCC2)n1 [CBK200021T] | 98.3% |
| O=C(O)c1cc(NC(=O)c2cccc(Oc3ccc([N+](=O)[O-])cc3)c2)cc(C(=O)O)c1 [CBK263528] | 80.8% |
| Cc1ccc(C2=NN(C(=O)CCC(=O)O)C(c3cc4cccc(C)c4[nH]c3=O)C2)cc1 (stereo not shown) [CBK296927] | 91% |
| O=C(N1CCOCC1)N1CCN(c2cncc(-c3ccc(O)cc3)n2)CC1 [CBK126946T] | 96.6% |

| Compound | viability at 28.5 h, 10 µM |
| --- | --- |
| O=c1c(I)coc2ccc(Cl)cc12 [CBK005364] | 93.9% |
| CCOc1ccc(/C=C2/NC(=O)NC2=O)cc1Br [CBK098031] | 91.6% |
| O=C(O)c1ccc(Oc2ccc3c(c2)C(=O)N(c2nccs2)C3=O)cc1 [CBK261200] | 101% |
| O=C(O)c1ccc(CNCCc2c[nH]c3ccccc23)cc1 [CBK287265] | 87.6% |
| Cc1ccc(NC(=O)Cn2cnc3c(-c4ccccc4)csc3c2=O)cc1 [CBK287812] | 104% |
| Cc1cc(C(=O)O)ccc1NC(=O)CCCC(=O)O [CBK267917] | 90.8% |
| COc1ccc(CNC(=O)NC(=O)C2CCN(CCCc3ccc4c(c3)OCO4)CC2)c(OC)c1 [CBK034875] | 100% |
| S=c1nc(-c2ccccc2)n2cc(Br)ccc2n1 [CBK026696] | 111% |
| CC1CCCC(C)N1C(=O)C1CCCCC1C(=O)O (stereo not shown) [CBK026624] | 93.2% |
| Cc1cc(OC(C)C(=O)Nc2ccc(S(=O)(=O)Nc3onc(C)c3C)cc2)cc(C)c1Cl (stereo not shown) [CBK267887] | 98.7% |
| CN(C)CCN(C)c1ccc(-c2cc3ccccc3o2)cn1 [CBK036820] | 107% |
| Cc1cn(C2CC(O)C(CO)O2)c(=O)[nH]c1=O (stereo not shown) [CBK011998] | 93.3% |
| CN(C)c1nc2c(c(-c3cncc(N)c3)n1)CCCC2 [CBK307503] | 105% |
| OC(COCc1ccc(Cl)cc1)CN1CCN(C(c2ccccc2)c2ccccc2)CC1 (stereo not shown) [CBK074857C] | 86.3% |
| N=C1OC2CSCC2N1C(=O)Cc1ccc(F)cc1 (stereo not shown) [CBK284515] | 103% |
| Cc1ccc(C(C)C)cc1OCC(=O)N/N=C\c1cc([N+](=O)[O-])ccc1O [CBK261206] | 92.6% |
| C=CCn1c(Cc2csc(NC(=O)Cc3ccc(Cl)cc3)n2)n[nH]c1=S [CBK295359] | 96.3% |
| COc1ccc(C(=O)N2CC[C@@H]3NC(=O)[C@H]4C[C@H](NC(=O)C5CCC5)CN4C(=O)[C@H]32)cc1 [CBK289268] | 111% |
| Cc1ccc(OCc2occc2C(=O)N2CCCn3cncc3C2)cc1 [CBK306618] | 92.7% |
| Cc1ccc2nc(-c3ccncc3)cc(C(=O)N3CCN(C4CCCCC4)CC3)c2c1 [CBK267736] | 96.4% |
| CN(C(=O)C1(C)CCOCC1)c1nc2c(s1)CC(c1ccccc1)CC2 (stereo not shown) [CBK305531] | 82.8% |
| Clc1ccc(-n2ncc(-c3ccsc3)n2)cc1Cl [CBK112843] | 96.3% |

| Compound | viability at 28.5 h, 10 µM |
| --- | --- |
| CC(C)(C)NC(=O)Cn1c(=O)n(Cc2cccs2)c2ncccc21 [CBK283844] | 104% |
| Cc1cccnc1NC(=O)c1ccc(NC(C)C)c([N+](=O)[O-])c1 [CBK269494] | 86.1% |
| CN(C(=O)CN1CCCC1Cn1cccn1)C1(C#N)CCCCC1 (stereo not shown) [CBK304571] | 88.6% |
| Cc1ccc2nc(-c3ccc(N)cc3)sc2c1S(=O)(=O)O [CBK261510] | 96.3% |
| COC(=O)c1ccccc1NC(=O)CSc1nnc(-c2ccccc2Cl)[nH]1 [CBK265966] | 95.4% |
| O=C(Cn1c(C2CCOCC2)cc2cccnc21)NC1CCCC1 [CBK285157] | 86.3% |
| COc1ccc(-c2noc(CSc3nnc(-c4ccncc4)n3C)n2)cc1 [CBK268245] | 96.8% |
| CC(C)(C)c1ccc(CN2CCN(C(=O)c3ccc(-c4ccc(S(C)(=O)=O)cc4)cn3)CC2)cc1 [CBK160487] | 96.1% |
| O=C1CSC2(C(=O)Nc3ccccc32)N1c1cccc(F)c1 (stereo not shown) [CBK093488] | 99.2% |
| Cn1c(=O)n(CC(=O)NC23CC4CC(CC(C4)C2)C3)c2cccnc21 [CBK283795] | 81.7% |
| O=C1NC(CCSC2=NCN=N2)Oc2ccccc21 (stereo not shown) [CBK009148] | 107% |
| CSc1nc(N)cc(N2CCN(C(=O)OC(C)(C)C)CC2)n1 [CBK003458] | 111% |
| O=C(NC1CCN(c2ncccn2)CC1)c1ccc[nH]c1=S [CBK241695] | 83.9% |
| COc1ccccc1CN(C)C(C)=O [CBK024120] | 118% |
| NS(=O)(=O)c1ccc(NC(=O)CSc2nc3sc4c(c3c(=O)[nH]2)CCC4)cc1 [CBK265554] | 103% |
| COc1cc(NC(=O)CN2CCc3c(c(CO)nn3C)C2)cc(OC)c1 [CBK306841] | 114% |
| CC(=O)Nc1ccc(NC(=O)C2C3CCC(C3)C2C(=O)O)cc1 (stereo not shown) [CBK263534] | 93.9% |
| CCOC(=O)c1cnc(SC)nc1NCCc1c[nH]cn1 [CBK086623] | 92.6% |
| O=C(NCc1cccs1)C1(Cc2ccc(-c3ccc(F)c(F)c3)cc2)CCOCC1 [CBK285533] | 99.5% |
| CC(=O)Nc1cccc(-c2cnc3[nH]c(=O)n([C@H](C)c4ccccc4)c3n2)c1 [CBK064188] | 95.9% |
| Cc1ccc(C#N)cc1S(=O)(=O)NC1CC(=O)c2ccccc21 (stereo not shown) [CBK304030] | 117% |
| CCN(CC)C(=O)CCNC(=O)c1ccc2c(c1)COC(C1CCN(C(=O)OC(C)(C)C)CC1)O2 (stereo not shown) [CBK173273] | 92.2% |
